Assays:
[1] = compound: NC(=O)CCCCC1CCSS1 [lipoamide]; experiment: thermal stability z-score vs DMSO; higher = more thermally stabilized by treatment; conditions: HeLa, lipoamide concentration 100 µM
Procedure: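 Cellular thermal proteome profiling in HeLa cells. Cells were treated with 100 µM lipoamide for 1 h, with or without 1 mM arsenate for a further 1 h, then heated to ten temperatures (37-66.3 °C), and soluble protein was quantified by TMT mass spectrometry relative to 0.1% DMSO controls. The thermal stability score (sum of log2 fold changes minus the abundance score) was transformed to a z-score; mean of n = 3 experiments.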

[2] = compound: O=[As]([O-])(O)O.[K+] [potassium arsenate]; experiment: as above; conditions: HeLa; arsenate concentration 1 mM
Procedure: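 Cellular thermal proteome profiling in HeLa cells treated with 1 mM arsenate for 1 h (DMSO pretreatment), heated to ten temperatures (37-66.3 °C). Soluble protein was quantified by TMT mass spectrometry relative to DMSO controls; the thermal stability score was transformed to a z-score; mean of n = 3 experiments.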

[3] = arsenate co-treatment: 1 mM arsenate 1 h
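Further: each temperature applied for 3 min, abundance score taken as mean log2 fold change at the two lowest temperatures, z-score obtained by mean subtraction and division by SD.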

Sequence of UniProt Q9NYJ8 (Q9NYJ8 whole entry): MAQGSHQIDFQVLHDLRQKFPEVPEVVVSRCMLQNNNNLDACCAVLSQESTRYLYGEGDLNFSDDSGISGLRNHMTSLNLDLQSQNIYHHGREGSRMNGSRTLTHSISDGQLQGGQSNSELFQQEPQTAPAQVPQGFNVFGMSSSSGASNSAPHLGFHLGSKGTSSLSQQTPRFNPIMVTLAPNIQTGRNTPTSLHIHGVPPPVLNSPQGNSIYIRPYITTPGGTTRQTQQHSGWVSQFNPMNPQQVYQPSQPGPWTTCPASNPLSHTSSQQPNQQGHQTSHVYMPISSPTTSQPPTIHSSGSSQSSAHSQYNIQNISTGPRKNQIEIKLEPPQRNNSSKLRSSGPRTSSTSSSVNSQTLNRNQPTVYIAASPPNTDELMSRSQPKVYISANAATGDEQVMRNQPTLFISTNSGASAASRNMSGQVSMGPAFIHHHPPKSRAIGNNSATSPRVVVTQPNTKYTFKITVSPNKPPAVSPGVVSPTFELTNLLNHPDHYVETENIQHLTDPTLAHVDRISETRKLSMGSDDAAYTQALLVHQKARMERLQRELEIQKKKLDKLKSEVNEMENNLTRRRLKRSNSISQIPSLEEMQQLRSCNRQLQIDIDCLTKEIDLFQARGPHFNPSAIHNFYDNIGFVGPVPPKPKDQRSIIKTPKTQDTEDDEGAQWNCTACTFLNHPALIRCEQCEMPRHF
Sequence of UniProt Q9UL54 (Q9UL54 whole entry): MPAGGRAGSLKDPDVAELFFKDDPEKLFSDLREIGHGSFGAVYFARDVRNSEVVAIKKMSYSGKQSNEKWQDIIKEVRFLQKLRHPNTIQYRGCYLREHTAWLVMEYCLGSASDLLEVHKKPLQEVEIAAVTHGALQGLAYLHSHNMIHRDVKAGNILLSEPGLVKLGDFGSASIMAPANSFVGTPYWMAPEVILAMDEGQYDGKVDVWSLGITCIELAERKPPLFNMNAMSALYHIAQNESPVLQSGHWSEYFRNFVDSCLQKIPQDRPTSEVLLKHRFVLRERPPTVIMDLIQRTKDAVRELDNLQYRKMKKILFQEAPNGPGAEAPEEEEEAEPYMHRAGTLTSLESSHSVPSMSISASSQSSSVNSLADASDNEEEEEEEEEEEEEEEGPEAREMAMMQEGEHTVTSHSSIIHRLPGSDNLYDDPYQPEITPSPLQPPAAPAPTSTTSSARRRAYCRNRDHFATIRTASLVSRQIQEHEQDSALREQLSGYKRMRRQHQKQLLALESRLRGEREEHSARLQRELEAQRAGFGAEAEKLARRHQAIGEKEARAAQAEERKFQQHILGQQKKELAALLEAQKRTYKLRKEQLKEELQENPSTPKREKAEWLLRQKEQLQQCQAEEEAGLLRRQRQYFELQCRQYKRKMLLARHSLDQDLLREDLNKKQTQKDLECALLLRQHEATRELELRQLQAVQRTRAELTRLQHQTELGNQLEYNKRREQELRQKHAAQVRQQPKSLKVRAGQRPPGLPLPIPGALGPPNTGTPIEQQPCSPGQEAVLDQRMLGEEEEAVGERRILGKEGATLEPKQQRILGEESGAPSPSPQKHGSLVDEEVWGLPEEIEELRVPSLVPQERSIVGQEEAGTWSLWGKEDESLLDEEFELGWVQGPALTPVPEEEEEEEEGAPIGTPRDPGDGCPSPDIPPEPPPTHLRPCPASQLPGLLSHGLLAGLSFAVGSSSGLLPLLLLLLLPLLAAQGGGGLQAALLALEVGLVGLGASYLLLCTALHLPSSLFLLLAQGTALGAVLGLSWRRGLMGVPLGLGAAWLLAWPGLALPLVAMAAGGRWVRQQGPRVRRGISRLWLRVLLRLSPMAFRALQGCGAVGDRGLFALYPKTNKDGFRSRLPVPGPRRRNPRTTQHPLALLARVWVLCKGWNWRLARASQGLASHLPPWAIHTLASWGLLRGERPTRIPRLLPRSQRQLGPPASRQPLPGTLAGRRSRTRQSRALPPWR
Sequence of UniProt O75410 (O75410 whole entry): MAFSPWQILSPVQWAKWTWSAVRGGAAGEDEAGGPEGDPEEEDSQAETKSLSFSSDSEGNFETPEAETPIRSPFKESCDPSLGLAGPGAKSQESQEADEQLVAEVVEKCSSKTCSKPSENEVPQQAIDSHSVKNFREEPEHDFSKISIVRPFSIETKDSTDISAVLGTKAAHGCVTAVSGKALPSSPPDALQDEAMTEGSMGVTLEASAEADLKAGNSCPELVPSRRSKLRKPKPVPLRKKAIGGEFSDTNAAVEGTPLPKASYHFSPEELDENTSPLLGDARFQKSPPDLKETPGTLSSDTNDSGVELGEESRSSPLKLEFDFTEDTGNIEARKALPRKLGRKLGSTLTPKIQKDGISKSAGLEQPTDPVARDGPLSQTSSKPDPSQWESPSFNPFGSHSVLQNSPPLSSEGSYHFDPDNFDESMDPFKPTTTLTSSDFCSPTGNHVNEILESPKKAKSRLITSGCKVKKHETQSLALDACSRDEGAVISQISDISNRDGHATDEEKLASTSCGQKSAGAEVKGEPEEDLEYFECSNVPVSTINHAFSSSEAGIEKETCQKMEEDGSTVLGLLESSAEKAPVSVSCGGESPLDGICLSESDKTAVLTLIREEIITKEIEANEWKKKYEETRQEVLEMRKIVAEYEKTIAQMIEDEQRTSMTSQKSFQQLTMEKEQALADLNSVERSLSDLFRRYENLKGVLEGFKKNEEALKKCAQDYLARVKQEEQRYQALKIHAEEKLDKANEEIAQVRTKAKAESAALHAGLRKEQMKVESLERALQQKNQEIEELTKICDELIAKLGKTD
Sequence of UniProt Q9H2K8 (Q9H2K8 whole entry): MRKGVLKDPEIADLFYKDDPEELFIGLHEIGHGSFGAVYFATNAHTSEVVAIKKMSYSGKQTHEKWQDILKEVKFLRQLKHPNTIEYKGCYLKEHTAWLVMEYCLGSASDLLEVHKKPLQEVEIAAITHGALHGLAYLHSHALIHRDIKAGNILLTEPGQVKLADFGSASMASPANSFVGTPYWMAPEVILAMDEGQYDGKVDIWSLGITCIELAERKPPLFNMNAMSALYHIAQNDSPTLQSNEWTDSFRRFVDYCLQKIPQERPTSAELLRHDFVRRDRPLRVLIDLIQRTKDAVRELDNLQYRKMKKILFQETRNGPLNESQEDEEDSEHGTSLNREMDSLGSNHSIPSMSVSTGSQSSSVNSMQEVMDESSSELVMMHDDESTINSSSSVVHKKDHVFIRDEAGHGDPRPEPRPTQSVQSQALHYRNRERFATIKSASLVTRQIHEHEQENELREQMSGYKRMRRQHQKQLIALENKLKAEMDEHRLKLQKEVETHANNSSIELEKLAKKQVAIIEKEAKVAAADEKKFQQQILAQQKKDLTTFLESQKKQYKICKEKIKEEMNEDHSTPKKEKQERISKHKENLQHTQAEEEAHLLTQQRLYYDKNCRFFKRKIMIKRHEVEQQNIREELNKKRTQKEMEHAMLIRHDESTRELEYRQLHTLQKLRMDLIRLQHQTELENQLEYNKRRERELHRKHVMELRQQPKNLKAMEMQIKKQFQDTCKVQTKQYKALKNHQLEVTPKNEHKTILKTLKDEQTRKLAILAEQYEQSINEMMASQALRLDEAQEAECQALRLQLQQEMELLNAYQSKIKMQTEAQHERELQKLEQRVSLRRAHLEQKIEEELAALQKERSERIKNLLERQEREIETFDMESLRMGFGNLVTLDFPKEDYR
Sequence of UniProt Q7Z422 (Q7Z422 whole entry): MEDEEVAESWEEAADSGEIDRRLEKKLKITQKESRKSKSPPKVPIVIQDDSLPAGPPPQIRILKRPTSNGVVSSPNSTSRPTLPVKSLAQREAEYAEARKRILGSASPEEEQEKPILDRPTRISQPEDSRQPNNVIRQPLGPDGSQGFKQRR
Sequence of UniProt Q15527 (Q15527 whole entry): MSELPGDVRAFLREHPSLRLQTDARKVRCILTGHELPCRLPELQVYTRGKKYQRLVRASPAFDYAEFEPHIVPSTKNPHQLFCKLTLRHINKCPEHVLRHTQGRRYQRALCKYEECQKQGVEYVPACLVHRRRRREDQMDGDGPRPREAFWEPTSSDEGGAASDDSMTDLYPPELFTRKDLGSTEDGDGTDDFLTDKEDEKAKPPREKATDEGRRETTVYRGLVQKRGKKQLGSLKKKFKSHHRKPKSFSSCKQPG
Sequence of UniProt Q96A49 (Q96A49 whole entry): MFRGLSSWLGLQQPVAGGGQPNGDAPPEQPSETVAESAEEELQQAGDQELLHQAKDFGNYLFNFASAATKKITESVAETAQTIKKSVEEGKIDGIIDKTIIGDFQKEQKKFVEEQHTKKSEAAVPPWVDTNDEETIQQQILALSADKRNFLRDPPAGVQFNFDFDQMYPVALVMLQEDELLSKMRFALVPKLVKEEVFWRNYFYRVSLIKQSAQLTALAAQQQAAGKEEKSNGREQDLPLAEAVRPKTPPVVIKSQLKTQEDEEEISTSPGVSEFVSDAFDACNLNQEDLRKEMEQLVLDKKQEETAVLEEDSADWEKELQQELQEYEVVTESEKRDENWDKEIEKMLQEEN
Sequence of UniProt Q01995 (Q01995 whole entry): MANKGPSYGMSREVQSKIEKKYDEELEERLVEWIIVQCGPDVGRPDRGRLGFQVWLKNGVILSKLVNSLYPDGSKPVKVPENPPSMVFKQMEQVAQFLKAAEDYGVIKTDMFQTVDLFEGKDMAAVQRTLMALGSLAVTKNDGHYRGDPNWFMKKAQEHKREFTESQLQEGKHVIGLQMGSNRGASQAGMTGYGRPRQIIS
Sequence of UniProt O15260 (O15260 whole entry): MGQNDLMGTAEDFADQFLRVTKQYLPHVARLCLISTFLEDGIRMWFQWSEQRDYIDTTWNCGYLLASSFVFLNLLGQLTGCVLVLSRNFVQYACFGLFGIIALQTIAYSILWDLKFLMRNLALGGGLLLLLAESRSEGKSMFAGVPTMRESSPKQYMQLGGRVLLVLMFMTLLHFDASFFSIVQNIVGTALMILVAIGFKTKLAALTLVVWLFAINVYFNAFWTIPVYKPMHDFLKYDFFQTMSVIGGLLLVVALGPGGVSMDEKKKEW
Sequence of UniProt P61956 (P61956 whole entry): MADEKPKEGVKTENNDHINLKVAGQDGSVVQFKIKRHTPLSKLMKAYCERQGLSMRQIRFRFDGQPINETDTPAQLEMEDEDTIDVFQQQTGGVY

Target | thermal stability z-score [1, 3] | thermal stability z-score ([1]; arsenate co-treatment: none) | thermal stability z-score [2]
SUMO2 (UniProt P61956) | 1.1 | 1.59 | 0.306
SUN2 (UniProt Q9UH99) | -1.43 | -1.36 | -0.0506
SUOX (UniProt P51687) | -0.266 | -0.279 | 0.168
SUPT4H1 (UniProt P63272) | -0.0276 | -0.173 | -0.164
SUPT5H (UniProt O00267) | 0.685 | -0.0241 | -0.186
SUPT6H (UniProt Q7KZ85) | 0.225 | 0.758 | -1
SUPT16H (UniProt Q9Y5B9) | 1.01 | 1.11 | 0.819
SUPV3L1 (UniProt Q8IYB8) | -0.171 | -0.116 | -0.478
SURF1 (UniProt Q15526) | -1.27 | -0.521 | 0.165
SURF2 (UniProt Q15527) | -0.0697 | 0.247 | -0.529
SURF4 (UniProt O15260) | -0.416 | -0.214 | -0.243
SURF6 (UniProt O75683) | -0.283 | -1.48 | -2.85
SUZ12 (UniProt Q15022) | -0.0278 | -0.101 | -0.186
SVIL (UniProt O95425) | 0.00545 | 0.00211 | 0.279
SWAP70 (UniProt Q9UH65) | -0.295 | 0.217 | 0.3
SYAP1 (UniProt Q96A49) | 0.0475 | -0.0361 | 0.679
SYDE1 (UniProt Q6ZW31) | -0.177 | -0.208 | -0.278
SYF2 (UniProt O95926) | 1.83 | 0.837 | -0.951
SYMPK (UniProt Q92797) | 0.324 | 0.338 | -0.75
SYNCRIP (UniProt O60506) | 0.0582 | 0.179 | -0.00709
SYNE2 (UniProt Q8WXH0) | -0.0307 | 0.18 | -0.123
SYNGR2 (UniProt O43760) | 0.329 | 0.548 | -0.0246
SYNJ1 (UniProt O43426) | 0.305 | -0.14 | -0.277
SYNJ2 (UniProt O15056) | 0.0806 | 0.0587 | -0.0134
SYNJ2BP (UniProt P57105) | 0.988 | 0.247 | 0.518
SYNRG (UniProt Q9UMZ2) | -0.398 | -0.18 | 0.478
SYPL1 (UniProt Q16563) | 0.951 | -0.0774 | 0.425
SYVN1 (UniProt Q86TM6) | -2 | -2.05 | -0.421

Target | thermal stability z-score [1, 3] | thermal stability z-score ([1]; arsenate co-treatment: none) | thermal stability z-score [2]
SZRD1 (UniProt Q7Z422) | 0.289 | 0.399 | -0.0744
TAB1 (UniProt Q15750) | -0.188 | -0.291 | -0.294
TAB2 (UniProt Q9NYJ8) | 0.0348 | -0.0384 | -0.292
TACC1 (UniProt O75410) | 0.293 | 0.0761 | 0.526
TACC2 (UniProt O95359) | 0.243 | 0.134 | 0.409
TACC3 (UniProt Q9Y6A5) | -0.148 | -0.162 | 0.662
TACO1 (UniProt Q9BSH4) | 0.0383 | -0.0229 | -0.113
TADA3 (UniProt O75528) | 0.0748 | 0.099 | 0.199
TAF2 (UniProt Q6P1X5) | -0.03 | -0.0592 | -0.179
TAF6 (UniProt P49848) | -0.0822 | -0.089 | 0.318
TAF7 (UniProt Q15545) | -0.3 | -0.347 | 0.641
TAF15 (UniProt Q92804) | 2.08 | 1.21 | 1.34
TAGLN2 (UniProt P37802) | 0.511 | 0.94 | -0.184
TAGLN (UniProt Q01995) | -0.0305 | 1.13 | -1.55
TALDO1 (UniProt P37837) | 0.471 | 0.557 | 0.839
TAMM41 (UniProt Q96BW9) | -0.232 | 0.102 | 0.161
TANC1 (UniProt Q9C0D5) | 0.142 | 1.34 | 1.14
TANC2 (UniProt Q9HCD6) | -0.0889 | -0.116 | -0.0159
TANGO6 (UniProt Q9C0B7) | -0.908 | -0.59 | 0.475
TAOK1 (UniProt Q7L7X3) | -0.503 | -0.204 | -0.658
TAOK2 (UniProt Q9UL54) | -0.161 | -0.0781 | -0.0359
TAOK3 (UniProt Q9H2K8) | 0.238 | 0.142 | 0.0629
TAP1 (UniProt Q03518) | -0.509 | -0.0614 | 1.47
TAP2 (UniProt Q03519) | -0.828 | -0.526 | 0.366
TAPBP (UniProt O15533) | -3.75 | -2.54 | 0.709
TAPT1 (UniProt Q6NXT6) | 0.869 | 0.562 | -0.606
TARBP1 (UniProt Q13395) | -0.285 | -0.136 | 0.121

Reference: the supplement of paper PMC12463676, “Small-molecule dissolution of stress granules by redox modulation benefits ALS models” (Nature Chemical Biology, 2025)
